Assay results published in BindingDB's records for patent US12065407 (Plex Pharmaceuticals, 2024).
pKi: −log10 of the molar value.

How the values were obtained:
[1] = molecular target: Peptidyl-prolyl cis-trans isomerase FKBP1A (Homo sapiens, UniProt P62942); test: Ki Estimation
[2] = molecular target: T1, Peptidyl-prolyl cis-trans isomerase FKBP4 (Homo sapiens, UniProt Q02790); test: Ki Estimation
T1 sequence (Q02790 whole entry): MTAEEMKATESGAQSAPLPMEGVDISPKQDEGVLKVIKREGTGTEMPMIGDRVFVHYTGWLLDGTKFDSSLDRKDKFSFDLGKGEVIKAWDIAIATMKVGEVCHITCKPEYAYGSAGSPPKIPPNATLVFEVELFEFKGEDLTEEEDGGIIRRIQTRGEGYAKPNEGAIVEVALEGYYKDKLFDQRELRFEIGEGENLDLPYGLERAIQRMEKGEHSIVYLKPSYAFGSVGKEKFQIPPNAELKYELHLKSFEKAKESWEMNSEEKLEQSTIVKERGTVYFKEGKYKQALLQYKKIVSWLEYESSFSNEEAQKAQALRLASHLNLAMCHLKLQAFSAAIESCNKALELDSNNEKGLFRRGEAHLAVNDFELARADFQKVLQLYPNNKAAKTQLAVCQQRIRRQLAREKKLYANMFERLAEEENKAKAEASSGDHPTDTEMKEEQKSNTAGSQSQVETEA

Chain of Peptidyl-prolyl cis-trans isomerase FKBP1A (P62942 whole entry): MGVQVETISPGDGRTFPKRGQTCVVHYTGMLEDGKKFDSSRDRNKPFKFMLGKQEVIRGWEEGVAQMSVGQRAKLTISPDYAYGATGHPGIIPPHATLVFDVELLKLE

Row | SMILES | pKi [1] | pKi [2]
1 | C(=C\c1nc2ccccc2n1Cc1ccccc1)/c1ccccc1 [US12065407, ID CAP01548] | < 4.82 | < 4.70
2 | CCCn1c(/C=C/c2ccccc2)nc2ccccc21 [US12065407, ID CAP01549] | < 4.70 | < 4.60
3 | CC(C)Cn1c(/C=C/c2ccccc2)nc2ccccc21 [US12065407, ID CAP01555] | < 4.82 | < 4.70
4 | O=C(N[C@H](Cc1ccc(Cl)cc1)C(=O)NCCCc1ccccc1)c1ccc2ccccc2c1 [US12065407, ID CAP01691] | < 4.30 | –
5 | O=C(N[C@@H](Cc1ccc(Cl)cc1)C(=O)NCCCc1ccccc1)c1ccc(F)cc1 [US12065407, ID CAP01719] | < 4.60 | < 4.60
6 | O=C(N[C@@H](Cc1ccc(Cl)cc1)C(=O)NCCCc1ccccc1)c1nc2ccccc2[nH]1 [US12065407, ID CAP01721] | – | < 4.30
7 | O=C(N[C@@H](Cc1ccc(F)cc1)C(=O)NCCCc1ccccc1)c1ccc2ccccc2c1 [US12065407, ID CAP01740] | < 4.40 | < 4.40
8 | CCC(C)(C)C(=O)N[C@H](C(=O)OCCCc1cccnc1)C1CCCC1 [US12065407, ID Tbl1.1] | < 4.60 | < 4.60

Other lines, results leading:

Row | pKi [1] | pKi [2] | SMILES
9 | < 5.00 | < 5.00 | Cn1c(/C=C/c2ccc(Cl)cc2)nc2ccccc21 [US12065407, ID CAP01509]
10 | < 5.00 | < 4.82 | Fc1ccccc1Cn1c(/C=C/c2ccccc2)nc2ccccc21 [US12065407, ID CAP01547]
11 | < 5.00 | < 4.82 | CCCCn1c(/C=C/c2ccccc2)nc2ccccc21 [US12065407, ID CAP01554]
12 | 4.49 | – | O=C(N[C@@H](Cc1ccc(Cl)cc1)C(=O)NCCCc1ccccc1)C1C2CC3CC(C2)CC1C3 (stereo partly specified) [US12065407, ID CAP01685]
